Data: patent US9302999B2, “Substituted triazoles as herbicides” (E. I. DU PONT DE NEMOURS AND COMPANY, priority 2012, dated 2016)

Experiments:
Type in all cases: in vivo
[1] = system: field violet (Viola arvensis); experiment: Test D pre-/postemergence: field violet
Excerpt: (§1) Seeds of plant species selected from bluegrass (annual bluegrass, Poa annua), blackgrass (Alopecurus myosuroides), canarygrass (Phalaris minor), chickweed (common chickweed, Stellaria media), galium (catchweed bedstraw, Galium aparine), bromegrass, downy (downy bromegrass, Bromus tectorum), field poppy (Papaver rhoeas), field violet (Viola arvensis), foxtail, green (green foxtail, Setaria viridis), deadnettle (henbit deadnettle, Lamium amplexicaule), ryegrass, Italian (Italian ryegrass, Lolium multiflorum), kochia (Kochia scoparia), lambsquarters (Chenopodium album), oilseed rape (Brassica napus), pigweed (Amaranthus retroflexus), Russian thistle (Salsola iberica), chamomile (scentless chamomile, Matricaria inodora), speedwell (bird's-eye speedwell, Veronica persica), barley, spring (spring barley, Hordeum vulgare), wheat, spring (spring wheat, Triticum aestivum), buckwheat, wild (wild buckwheat, Polygonum convolvulus), mustard, wild (wild mustard, Sinapis arvensis), oat, wild (wild oat, Avena fatua), radish, wild (wild radish, Raphanus raphanistrum), windgrass (Apera spica-venti), barley, winter (winter barley, Hordeum vulgare), and wheat, winter (winter wheat, Triticum aestivum) were planted into a silt loam soil and treated preemergence with test chemicals formulated in a non-phytotoxic solvent mixture which included a surfactant. At the same time, these same crop and weed species were planted in pots containing the planting medium comprising spaghnum peat moss, vermiculite, wetting agent and starter nutrients and treated with postemergence applications of the test chemicals formulated in the same manner. Plants ranged in height from 2 to 18 cm (1- to 4-leaf stage).
(§2) Treated plants and controls were maintained in a controlled growth environment for 14 to 21 days after which time all species were compared to controls and visually evaluated. Plant response ratings, summarized in Table D, are based on a scale of 0 to 100 where 0 is no effect and 100 is complete control. A dash (-) response means no test result.

[2] = system: Russian thistle (Salsola kali); experiment: Test C pre-/postemergence: Russian thistle; conditions: Preemergence
Excerpt: Seeds of plant species selected from blackgrass (Alopecurus myosuroides), bromegrass, downy (downy bromegrass, Bromus tectorum), foxtail, green (green foxtail, Setaria viridis), ryegrass, Italian (Italian ryegrass, Lolium multiflorum), winter wheat (Triticum aestivum), wild oat (Avena fatua), galium (catchweed bedstraw, Galium aparine), bermudagrass (Cynodon dactylon), surinam grass (Brachiaria decumbens), cocklebur (common cocklebur, Xanthium strumarium), corn (Zea mays), large crabgrass (Digitaria sanguinalis), woolly cupgrass (Eriochloa villosa), foxtail, giant (giant foxtail, Setaria faberii), goosegrass (Eleusine indica), johnsongrass (Sorghum halepense), kochia (Kochia scoparia), lambsquarters (Chenopodium album), morningglory (Ipomoea coccinea), nightshade (eastern black nightshade, Solanum ptycanthum), nutsedge, yellow (yellow nutsedge, Cyperus esculentus), pigweed (Amaranthus retroflexus), ragweed (common ragweed, Ambrosia elation), soybean (Glycine max), common (oilseed) sunflower (Helianthus annuus), Russian thistle (Salsola kali) and velvetleaf (Abutilon theophrasti) were planted into a blend of loam soil and sand and treated preemergence with test chemicals formulated in a non-phytotoxic solvent mixture which included a surfactant.
At the same time, plants selected from these crop and weed species and also barley (winter barley, Hordeum vulgare), canarygrass (Phalaris minor), chickweed (common chickweed, Stellaria media) windgrass (Apera spica-venti) and deadnettle (henbit deadnettle, Lamium amplexicaule) were planted in pots containing Redi-Earth® planting medium (Scotts Company, 14111 Scottslawn Road, Marysville, Ohio 43041) comprising spaghnum peat moss, vermiculite, wetting agent and starter nutrients and treated with postemergence applications of test chemicals formulated in the same manner. Plants ranged in height from 2 to 18 cm (1- to 4-leaf stage) for postemergence treatments.
as §2, with “greenhouse” for “controlled growth environment”, “13” for “14”, “15 days,” for “21 days”, “C,” for “D,”

[3] = system: oilseed rape (Brassica napus); experiment: Test D pre-/postemergence: oilseed rape
Excerpt: as §1, §2

[4] = system: field bindweed (Convolvulus arvensis); experiment: Test F pre-/postemergence: field bindweed; conditions: Postemergence, scale 0 to 100
Excerpt: Seeds of plant species selected from corn (Zea mays), soybean (Glycine max), velvetleaf (Abutilon theophrasti), lambsquarters (Chenopodium album), poinsettia, wild (wild poinsettia, Euphorbia heterophylla), pigweed, palmer (palmer pigweed, Amaranthus palmeri), waterhemp (common waterhemp, Amaranthus rudis), surinam grass (Brachiaria decumbens), crabgrass, Brazil (Brazilian crabgrass, Digitaria horizontalis), panicum, fall (fall panicum Panicum dichotomiflorum), crabgrass, large (large crabgrass, Digitaria sanguinalis), foxtail, giant (giant foxtail, Setaria faberii), foxtail, green (green foxtail Setaria viridis), goosegrass (Eleusine indica), ragweed (common ragweed, Ambrosia elatior), barnyardgrass (Echinochloa crus-galli), sandbur (southern sandbur, Cenchrus echinatus), arrowleaf sida (Sida rhombifolia), ryegrass, Italian (Italian ryegrass, Lolium multiflorum), dayflower, VA (Virginia (VA) dayflower, Commelina virginica), field bindweed (Convolvulus arvensis), cocklebur (common cocklebur, Xanthium strumarium), morningglory (Ipomoea coccinea), nightshade (eastern black nightshade, Solanum ptycanthum), kochia (Kochia scoparia), nutsedge, yellow (yellow nutsedge, Cyperus esculentus), johnsongrass (Sorghum halepense), smartweed (ladysthumb smartweed, Polygonum persicaria), and beggarticks (hairy beggarticks, Bidens pilosa), were planted into a silt loam soil and treated preemergence with test chemicals formulated in a non-phytotoxic solvent mixture which included a surfactant. At the same time, plants selected from these crop and weed species and also pigweed (Amaranthus retroflexus), waterhemp_RES1 (ALS/Triazine resistant common waterhemp, Amaranthus rudis) and waterhemp_RES2 (ALS/HPPD resistant common waterhemp, Amaranthus rudis) were planted in pots containing a planting medium comprising spaghnum peat moss, vermiculite, wetting agent and starter nutrients treated with postemergence applications of some of the test chemicals formulated in the same manner. Plants ranged in height from 2 to 18 cm for postemergence treatments (1- to 4-leaf stage).
as §2, with “greenhouse” for “controlled growth environment”, “days,” for “days”, “E,” for “D,”

[5] = Postemergence, 31 g ai/ha, scale 0 to 100 (0 no effect, 100 complete control)
[6] = Postemergence, 62 g ai/ha, scale 0 to 100 (0 no effect, 100 complete control)
[7] = Postemergence, 125 g ai/ha, scale 0 to 100, 0 no effect, 100 complete control
[8] = Postemergence, 250 g ai/ha, scale 0 to 100 (0 no effect, 100 complete control)
[9] = Preemergence, 31 g ai/ha, scale 0 to 100, 0 no effect, 100 complete control
[10] = Preemergence, 62 g ai/ha, scale 0 to 100
[11] = Preemergence, 125 g ai/ha, scale 0 to 100
[12] = Preemergence, 250 g ai/ha, scale 0 to 100
[13] = 31 g ai/ha, scale of 0 to 100, 0 is no effect, 100 is complete control
[14] = 62 g ai/ha, scale of 0 to 100, 0 is no effect, 100 is complete control
[15] = 125 g ai/ha, scale 0 to 100, 0 no effect, 100 complete control
[16] = 250 g ai/ha, scale 0 to 100, 0 no effect, 100 complete control
[17] = Postemergence, 16 g ai/ha, scale 0 to 100
[18] = Preemergence, 16 g ai/ha, scale 0 to 100, 0 no effect, 100 complete control

Compound: FC(F)(F)COc1nn(-c2ccc(C(F)(F)F)cc2)nc1Cc1ccnc(C(F)(F)F)c1 [Compound 14, 4-[[5-(2,2,2-trifluoroethoxy)-2-[4-(trifluoromethyl)phenyl]-2H-1,2,3-triazol-4-yl]methyl]-2-(trifluoromethyl)pyridine]
- Plant response rating: Field Violet [1, 5]: 100
- Plant response rating: Field Violet [1, 6]: 100
- Plant response rating: Field Violet [1, 7]: 100
- Plant response rating: Field Violet [1, 8]: 100
- Plant response rating, Field Violet [1, 9]: 75
- Plant response rating, Field Violet [1, 10]: 90
- Plant response rating, Field Violet [1, 11]: 95
- Plant response rating, Field Violet [1, 12]: 95
- Plant response rating, Russian Thistle [2, 13]: 10
- Plant response rating, Russian Thistle [2, 14]: 90
- Plant response rating, Russian Thistle [2, 15]: 95
- Plant response rating, Russian Thistle [2, 16]: 95
- Plant response rating: Oilseed Rape [3, 5]: 30
- Plant response rating: Oilseed Rape [3, 6]: 70
- Plant response rating: Oilseed Rape [3, 7]: 90
- Plant response rating: Oilseed Rape [3, 8]: 100
- Plant response rating, Oilseed Rape [3, 9]: 0
- Plant response rating, Oilseed Rape [3, 10]: 0
- Plant response rating, Oilseed Rape [3, 11]: 30
- Plant response rating, Oilseed Rape [3, 12]: 40

Compound: COc1nn(-c2ccc(C(F)(F)F)cc2)nc1Cc1ccnc(C(F)(F)F)c1 [Compound 15, 4-[[5-methoxy-2-[4-(trifluoromethyl)phenyl]-2H-1,2,3-triazol-4-yl]methyl]-2-(trifluoromethyl)pyridine]
- Plant response rating: Field Violet [1, 5]: 100
- Plant response rating: Field Violet [1, 6]: 100
- Plant response rating: Field Violet [1, 7]: 100
- Plant response rating: Field Violet [1, 8]: 100
- Plant response rating, Field Violet [1, 17]: 80
- Plant response rating, Russian Thistle ([2]; 16 g ai/ha, scale 0 (no effect) to 100 (complete control)): 5
- Plant response rating, Russian Thistle [2, 13]: 50
- Plant response rating, Russian Thistle [2, 14]: 95
- Plant response rating, Russian Thistle [2, 15]: 100
- Plant response rating: Oilseed Rape [3, 5]: 100
- Plant response rating: Oilseed Rape [3, 6]: 70
- Plant response rating: Oilseed Rape [3, 7]: 100
- Plant response rating: Oilseed Rape [3, 8]: 100
- Plant response rating, Oilseed Rape [3, 17]: 70
- Plant response rating, Oilseed Rape [3, 9]: 0
- Plant response rating, Oilseed Rape [3, 10]: 10
- Plant response rating, Oilseed Rape [3, 11]: 20
- Plant response rating, Oilseed Rape [3, 12]: 75

Compound: Cc1nn(-c2ccc(C(F)(F)F)cn2)nc1Oc1ccnc(C(F)(F)F)c1 [Compound 23]
- Plant response rating: Field Violet [1, 5]: 40
- Plant response rating: Field Violet [1, 6]: 50
- Plant response rating: Field Violet [1, 7]: 70
- Plant response rating: Field Violet [1, 8]: 80
- Plant response rating, Field Violet [1, 17]: 20
- Plant response rating: Oilseed Rape [3, 5]: 50
- Plant response rating: Oilseed Rape [3, 6]: 75
- Plant response rating: Oilseed Rape [3, 7]: 85
- Plant response rating: Oilseed Rape [3, 8]: 95
- Plant response rating, Oilseed Rape [3, 17]: 50

Compound: Fc1ccc(-n2nc(Cc3ccnc(C(F)(F)F)c3)c(OC(F)F)n2)cc1 [Compound 25]
- Plant response rating, Russian Thistle [2, 13]: 0
- Plant response rating, Russian Thistle [2, 15]: 90
- Plant response rating, Russian Thistle [2, 16]: 90

Compound: FC(F)Oc1nn(-c2ccc(C(F)(F)F)cc2)nc1Cc1ccnc(C(F)(F)F)c1 [Compound 26]
- Plant response rating, Russian Thistle [2, 14]: 80
- Plant response rating, Russian Thistle [2, 15]: 95
- Plant response rating, Russian Thistle [2, 16]: 95

Compound: Cc1nn(-c2ccc(C(F)(F)F)cn2)nc1Cc1cccc(C(F)(F)F)c1 [Compound 106]
- Plant response rating: Field Violet [1, 5]: 70
- Plant response rating: Field Violet [1, 6]: 70
- Plant response rating: Field Violet [1, 7]: 85
- Plant response rating: Field Violet [1, 8]: 100
- Plant response rating, Field Violet [1, 17]: 70
- Plant response rating, Russian Thistle [2, 13]: 0
- Plant response rating, Russian Thistle [2, 14]: 5
- Plant response rating, Russian Thistle [2, 15]: 30
- Plant response rating, Russian Thistle [2, 16]: 100
- Plant response rating: Oilseed Rape [3, 5]: 10
- Plant response rating: Oilseed Rape [3, 6]: 10
- Plant response rating: Oilseed Rape [3, 7]: 80
- Plant response rating: Oilseed Rape [3, 8]: 95
- Plant response rating, Oilseed Rape [3, 17]: 10
- Plant response rating, Oilseed Rape [3, 9]: 10
- Plant response rating, Oilseed Rape [3, 10]: 10
- Plant response rating, Oilseed Rape [3, 11]: 10
- Plant response rating, Oilseed Rape [3, 12]: 20

Compound: Cc1nn(-c2ccnc(Cl)c2)nc1Cc1ccnc(C(F)(F)F)c1 [Compound 141]
- Plant response rating, Field Bindweed ([4]; 8 g ai/ha): 50
- Plant response rating, Field Bindweed ([4]; 16 g ai/ha): 60
- Plant response rating, Field Bindweed ([4]; 31 g ai/ha): 70
- Plant response rating, Field Bindweed ([4]; 62 g ai/ha): 80
- Plant response rating, Field Bindweed ([4]; 125 g ai/ha): 85

Compound: Cc1nn(-c2ccc(F)c(C(F)(F)F)c2)nc1Cc1ccnc(C(F)(F)F)c1 [Compound 156]
- Plant response rating: Field Violet [1, 5]: 95
- Plant response rating: Field Violet [1, 6]: 95
- Plant response rating: Field Violet [1, 7]: 95
- Plant response rating, Field Violet [1, 17]: 95
- Plant response rating, Field Violet [1, 18]: 60
- Plant response rating, Field Violet [1, 9]: 95
- Plant response rating, Field Violet [1, 10]: 100
- Plant response rating, Field Violet [1, 11]: 100
- Plant response rating: Oilseed Rape [3, 5]: 100
- Plant response rating: Oilseed Rape [3, 6]: 100
- Plant response rating: Oilseed Rape [3, 7]: 100
- Plant response rating, Oilseed Rape [3, 17]: 100
- Plant response rating, Oilseed Rape [3, 18]: 0
- Plant response rating, Oilseed Rape [3, 9]: 0
- Plant response rating, Oilseed Rape [3, 10]: 85
- Plant response rating, Oilseed Rape [3, 11]: 100
